From EP1290011B1 (Oncopeptides AB, priority 2000, dated 2001)
Structures can show the parent of a compound that is named as a salt. Where two headings read alike, the source gives them in different places.

What was measured:
Assay in all cases: cells
CEM/S = assay type: cell-based, human
CEM/R = assay type: cell-based, human
ACHN = assay type: cell-based, human; conditions: ACHN
H69 = assay type: cell-based, human
H69AR = assay type: cell-based, human; conditions: H69AR
8226S = assay type: cell-based, human
8226Dox40 = assay type: cell-based, human
8226LR5 = assay type: cell-based, human
U937gtb = assay type: cell-based, human
U937vcr = assay type: cell-based, human
[1] = system: panel of ten human tumour cell lines; assay type: cell-based; conditions: read-out: MEAN IC50
[2] = system: hematological fresh human tumour specimens (PHTC); conditions: 72 h, read-out: Tumour cell survival index % Hematological
[3] = system: solid tumour fresh human tumour specimens (PHTC); conditions: 72 h, read-out: Tumour cell survival index % Solid
NCI-H23 = assay type: cell-based; conditions: Homo sapiens, NCI-H23
U-1752 = assay type: cell-based
NCI-H611 = assay type: cell-based
NCI-H157 = assay type: cell-based; conditions: Homo sapiens, NCI-H157
U-1810 = assay type: cell-based; conditions: U-1810
NCI-H125 = assay type: cell-based; conditions: Homo sapiens, NCI-H125
U-1568 = assay type: cell-based
U1906L = assay type: cell-based
U1285 = assay type: cell-based
U-1906E = assay type: cell-based
U1690 = assay type: cell-based
[4] = CEM/S, 72 hours incubation, read-out: IC50
[5] = CEM/R, 72 hours incubation, read-out: IC50
[6] = primary resistant renal carcinoma, 72 hours incubation, read-out: IC50
[7] = H69, small cell lung cancer, 72 hours incubation, read-out: IC50
[8] = doxorubicin resistance, 72 hours incubation, read-out: IC50
[9] = 8226S, myeloma, 72 hours incubation, read-out: IC50
[10] = 8226Dox40, doxorubicin resistance, 72 hours incubation, read-out: IC50
[11] = 8226LR5, melphalan resistance, 72 hours incubation, read-out: IC50
[12] = U937gtb, lymphoma, 72 hours incubation, read-out: IC50
[13] = U937vcr, vincristine resistance, 72 hours incubation, read-out: IC50

What does the source list for `CCOC(=O)[C@H](Cc1ccc([N+](=O)[O-])cc1)NC(=O)[C@@H](N)Cc1ccc(N(CCCl)CCCl)cc1` [JV26, L-Malphalanyl-L-p-nitrophenylalanine ethyl ester hydrochloride]?
IC50 (CEM/S; [4]): 50 nM; IC50 (CEM/R; [5]): 30 nM; IC50 (ACHN; [6]): 220 nM; IC50 (H69; [7]): 60 nM; IC50 (H69AR; [8]): 510 nM; IC50 (8226S; [9]): 1050 nM; IC50 (8226Dox40; [10]): 1730 nM; IC50 (8226LR5; [11]): 1990 nM; IC50 (U937gtb; [12]): 230 nM; IC50 (U937vcr; [13]): 260 nM; IC50 ([1]; mean over the ten cell lines): 610 nM

How did the IC50 (CEM/S; [4]) turn out when `CCOC(=O)[C@H](Cc1ccc(N(CCCl)CCCl)cc1)NC(=O)[C@@H](N)Cc1ccc(N(CCCl)CCCl)cc1` [JV27, L-Melphalanyl-L-melphalan ethyl ester hydrochloride] was run?
Its IC50 is 140 nM.

And the IC50 (CEM/R; [5])?
The IC50 was 100 nM.

What about the IC50 (ACHN; [6]) of the same compound?
Its IC50 is 210 nM.

And the IC50 (H69; [7])?
Its IC50 is 290 nM.

What about the IC50 (H69AR; [8]) of the same compound?
Its IC50 is 1400 nM.

And the IC50 (8226Dox40; [10])?
The IC50 was 1580 nM.

And the IC50 (8226LR5; [11])?
The IC50 was 2460 nM.

What about the IC50 (U937gtb; [12]) of the same compound?
The IC50 was 160 nM.

And the IC50 (U937vcr; [13])?
Its IC50 is 260 nM.

And the IC50 ([1]; mean over the ten cell lines)?
Its IC50 is 760 nM.

For `CCC1=C[C@@H]2CN(C1)Cc1c([nH]c3ccccc13)[C@@](C(=O)OC)(c1cc3c(cc1OC)N(C)[C@H]1[C@@](O)(C(=O)OC)[C@H](OC(C)=O)[C@]4(CC)C=CCN5CC[C@]31[C@@H]54)C2` [Vinorelbine, vinorelbine], which viability at 3.1 µM [2] is on record?
The viability at 3.1 µM was 50%.

What about the viability at 3.1 µM [3] of the same compound?
Its viability at 3.1 µM is 73%.

Which IC50 (CEM/S; Homo sapiens, 72 h) does the source give for `COc1cccc2c1C(=O)c1c(O)c3c(c(O)c1C2=O)C[C@@](O)(C(=O)CO)C[C@@H]3O[C@H]1C[C@H](N)[C@H](O)[C@H](C)O1` [Doxorubicin, doxorubicin] here?
Its IC50 is 180 nM.

And the IC50 (CEM/R; Homo sapiens, 72 h)?
The IC50 was 1310 nM.

And the IC50 (ACHN; Homo sapiens, 72 h)?
The IC50 was 14200 nM.

What about the IC50 (H69; Homo sapiens, NCI-H69, 72 h) of the same compound?
Its IC50 is 1660 nM.

What about the IC50 (H69AR; Homo sapiens, 72 h) of the same compound?
Its IC50 is 11600 nM.

What about the IC50 (8226S; Homo sapiens, 72 h) of the same compound?
The IC50 was 130 nM.

What about the IC50 (8226Dox40; Homo sapiens, 72 h) of the same compound?
Its IC50 is 4970 nM.

What about the IC50 (8226LR5; Homo sapiens, 72 h) of the same compound?
Its IC50 is 550 nM.

What about the IC50 (U937gtb; Homo sapiens, U-937/GTB, 72 h) of the same compound?
The IC50 was 110 nM.

What about the IC50 (U937vcr; Homo sapiens, 72 h) of the same compound?
Its IC50 is 420 nM.

What about the IC50 ([1]; Homo sapiens) of the same compound?
Its IC50 is 3510 nM.

What about the IC50 (NCI-H23) of the same compound?
The IC50 was 140 nM.

What about the IC50 (U-1752) of the same compound?
The IC50 was 420 nM.

What about the IC50 (NCI-H611) of the same compound?
The IC50 was 183000 nM.

What about the IC50 (NCI-H157) of the same compound?
Its IC50 is 200 nM.

And the IC50 (U-1810)?
Its IC50 is 22800 nM.

What about the IC50 (NCI-H125) of the same compound?
The IC50 was 500 nM.

What about the IC50 (U-1568) of the same compound?
Its IC50 is 183000 nM.

What about the IC50 (U1906L) of the same compound?
The IC50 was 920 nM.

And the IC50 (U1285)?
Its IC50 is 520 nM.

And the IC50 (U-1906E)?
The IC50 was 440 nM.

What about the IC50 (U1690) of the same compound?
The IC50 was 2210 nM.

And the viability at 0.92 µM [2]?
Its viability at 0.92 µM is 29%.

What about the viability at 0.92 µM [3] of the same compound?
The viability at 0.92 µM was 97%.

For `CCOC(=O)[C@H](Cc1ccc(N)cc1)NC(=O)[C@@H](N)Cc1ccc(N(CCCl)CCCl)cc1` [JV29, L-Me3phalariyl-L-p-aminophenylalanine ethyl ester hydrochloride], which IC50 (CEM/S; [4]) is on record?
The IC50 was 60 nM.

What about the IC50 (CEM/R; [5]) of the same compound?
The IC50 was 30 nM.

What about the IC50 (ACHN; [6]) of the same compound?
The IC50 was 190 nM.

And the IC50 (H69; [7])?
The IC50 was 90 nM.

And the IC50 (H69AR; [8])?
Its IC50 is 460 nM.

And the IC50 (8226S; [9])?
Its IC50 is 900 nM.

And the IC50 (8226Dox40; [10])?
Its IC50 is 2010 nM.

What about the IC50 (8226LR5; [11]) of the same compound?
Its IC50 is 2730 nM.

What about the IC50 (U937gtb; [12]) of the same compound?
Its IC50 is 150 nM.

What about the IC50 (U937vcr; [13]) of the same compound?
Its IC50 is 190 nM.

And the IC50 ([1]; mean over the ten cell lines)?
The IC50 was 680 nM.

Which viability at 8.5 µM [2] does the source give for `COc1cc([C@@H]2c3cc4c(cc3[C@@H](O[C@@H]3O[C@@H]5CO[C@@H](C)O[C@H]5[C@H](O)[C@H]3O)[C@H]3COC(=O)[C@H]23)OCO4)cc(OC)c1O` [Etoposide, etoposide] here?
The viability at 8.5 µM was 47%.

What about the viability at 8.5 µM [3] of the same compound?
The viability at 8.5 µM was 81%.

What does the source list for `O=c1[nH]cc(F)c(=O)[nH]1` [Example 5-FU, 5-FU, reference compound]?
IC50 (CEM/S; [4]): 57400 nM; IC50 (CEM/R; [5]): 44500 nM; IC50 (ACHN; [6]): 769000 nM; IC50 (H69; [7]): 769000 nM; IC50 (H69AR; [8]): 769000 nM; IC50 (8226S; [9]): 75600 nM; IC50 (8226Dox40; [10]): 60600 nM; IC50 (8226LR5; [11]): 5300 nM; IC50 (U937vcr; [13]): 572000 nM; IC50 ([1]; mean over the ten cell lines): 321000 nM

For `CC[C@]1(O)C[C@H]2CN(CCc3c([nH]c4ccccc34)[C@@](C(=O)OC)(c3cc4c(cc3OC)N(C=O)[C@H]3[C@@](O)(C(=O)OC)[C@H](OC(C)=O)[C@]5(CC)C=CCN6CC[C@]43[C@@H]65)C2)C1` [Vincristine, vincristine, reference compound], which IC50 (CEM/S; Homo sapiens, 72 h) is on record?
Its IC50 is 80 nM.

And the IC50 (CEM/R; Homo sapiens, 72 h)?
Its IC50 is 10 nM.

And the IC50 (ACHN; Homo sapiens, 72 h)?
Its IC50 is 109000 nM.

And the IC50 (H69; Homo sapiens, NCI-H69, 72 h)?
Its IC50 is 69800 nM.

And the IC50 (H69AR; Homo sapiens, 72 h)?
Its IC50 is 121000 nM.

And the IC50 (8226S; Homo sapiens, 72 h)?
The IC50 was 10 nM.

And the IC50 (8226Dox40; Homo sapiens, 72 h)?
Its IC50 is 900 nM.

What about the IC50 (8226LR5; Homo sapiens, 72 h) of the same compound?
Its IC50 is 80 nM.

And the IC50 (U937gtb; Homo sapiens, U-937/GTB, 72 h)?
Its IC50 is 10 nM.

And the IC50 (U937vcr; Homo sapiens, 72 h)?
Its IC50 is 80 nM.

What about the IC50 ([1]; Homo sapiens) of the same compound?
The IC50 was 30100 nM.

What about the viability at 3 µM [2] of the same compound?
Its viability at 3 µM is 39%.

And the viability at 3 µM [3]?
Its viability at 3 µM is 93%.
